# Test: gradient 5% acetonitrile 3 min, to 50% in 2 min, to 85% in 15 min, held 3 min, 100 µL/min
# Conditions: column: Zorbax Extend-C18 2.1 x 50 mm; eluents: water / acetonitrile, 0.1% formic acid
# Summary of the method: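 A Zorbax Extend-C18 column (2.1 × 50 mm, 1.8 μm) run at 100 μL/min with water and acetonitrile, both containing 0.1% formic acid, separated mixtures of ~100 pure standards. The HPLC was coupled to a quadrupole time-of-flight mass spectrometer operated in positive and negative ionization mode, with dead and dwell volumes of 40 μL and 900 μL. Each retention time was taken from a computationally picked adduct peak that was then manually inspected.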
row,SMILES,RP-LC retention time
1,Cc1sc(C)c(S(=O)(=O)Nc2ccc(Cl)cc2)c1-c1cc(C(F)(F)F)on1,1210 s
2,O=S(=O)(c1cc(-c2nnc(C3CC3)o2)co1)N1CCN(c2cccc(Cl)c2)CC1,1060 s
3,CCOc1ccc(CCNC(=O)C2CCCN(c3ncnc4c3nc3n4CCCCC3)C2)cc1 (stereo unspecified),807 s
4,COc1ccc(-c2nc(C3CC(=O)N(c4ccc(Cl)cc4)C3)no2)cc1OC (stereo unspecified),944 s
5,Cc1nc(C)c(-c2nnc(NC(=O)NCc3cccs3)o2)s1,672 s
6,Cc1cc(C(=O)N2CCN(CCNC(=O)c3ccsc3)CC2)c(C)o1,554 s
7,COc1cccc(C(=O)Nc2cccn3ncnc23)c1,710 s
8,Clc1ccc(Nc2c(-c3ccccc3Cl)nc3ccc(Cl)cn23)cc1,946 s
9,CCN1C(=O)CCC2(C(=O)NCCc3c[nH]c4ccccc34)CCCC=C12 (stereo unspecified),743 s
10,Cn1nc(-c2nnc(-c3ccccc3F)o2)c2c1CCN(S(=O)(=O)c1ccc(Cl)s1)C2,1010 s
11,CCS(=O)(=O)N1CC(=O)N(c2ccccc2C)C(C)(C(=O)NC2CCCCCCC2)C1 (stereo unspecified),951 s
12,COc1ccc(-c2ccnc3nc(Cc4ccc(F)cc4)nn23)cc1OC,851 s
13,Cc1cc(S(=O)(=O)Nc2cccn3c(C4CCC4)nnc23)ccc1F,822 s
14,c1cc(-c2nc(-c3ccc(-c4csc(C5CC5)n4)cc3)no2)ccn1,1290 s
15,CCCn1c(=O)sc2cc(S(=O)(=O)N3CCC(C(=O)NCc4cccs4)CC3)ccc21,880 s
16,Cc1ccc(Nc2c(-c3ccc(O)cc3)nc3cccc(C)n23)cc1,732 s
17,O=C1Nc2ccccc2SC1C(=O)N1CCC(C(=O)N2CCN(c3ccccc3F)CC2)CC1 (stereo unspecified),784 s

# Second part, the compound after the results:
row,RP-LC retention time,SMILES
1,1250 s,COc1cccc(-n2c(=O)c(C(=O)Nc3cccc(F)c3)c(O)c3cccnc32)c1
2,654 s,CCOC(=O)c1ccc(NC(=O)COc2cccc3ccc(N4CCOCC4)nc23)cc1
3,1210 s,Cc1cc(C)cc(NC(=O)Nc2nccn(-c3ccc4c(c3)CCC4)c2=O)c1
4,733 s,Cc1ccc(-c2cc3c(=O)n(Cc4noc(CN5CCOCC5)n4)ccn3n2)cc1
5,803 s,CC(=O)Nc1ccc(CC(=O)NC(C(=O)N2CCCc3ccccc32)c2ccccc2)cc1 (stereo unspecified)
6,593 s,O=C(NCc1cccnc1)c1nc(CCS(=O)(=O)c2ccccc2)no1
7,1010 s,Cc1ccc(C)c(S(=O)(=O)N2CCc3c(c(-c4nnc(-c5ccccc5F)o4)nn3C)C2)c1
8,961 s,CCn1ccc(C(=O)Nc2cccc(OCc3nnc(-c4ccc(Cl)cc4)o3)c2)n1
9,900 s,Cc1cc(OCC(=O)Nc2cc(F)ccc2F)nc(N2CCN(c3ccccc3)CC2)n1
10,579 s,Cc1cc2n(n1)CCCN2C(=O)CCC(=O)NC1CCN(Cc2ccccc2)CC1
11,1130 s,Cc1nnc2nc(-c3ccccc3)nc(-c3ccccc3)n12
12,812 s,Cc1cc(C(=O)Nc2nnc(-c3cc4ccccc4o3)o2)c(C)o1
13,1140 s,COc1ccc(Cl)cc1NC(=O)N1CCCC1c1nc(-c2ccccc2)no1 (stereo unspecified)
14,862 s,Cc1cc(C)cc(N2CCC(NC(=O)Cc3cccs3)C2=O)c1 (stereo unspecified)
15,1090 s,Cc1cc2nc(C(=O)Nc3ccc(C)c(C)c3)cc(C)n2n1
16,938 s,CCc1cc(=O)n(CC(=O)Nc2cc(C)on2)c(-c2ccccc2)n1
17,804 s,Cc1ccc(C)c(NC(=O)CSc2nc(N3CCCCC3)nc3ccccc23)c1
18,1010 s,COc1ccccc1-c1noc(Cn2cnc3c(cnn3-c3ccc(Cl)cc3)c2=O)n1
19,948 s,COc1ccccc1NC(=O)N1CCc2nc(-c3ccc(Cl)cc3)ncc2C1
